Assay results reported in PMC10266688 (PLOS ONE, 2023).
Several values for one entry are separate records, joined by “and”; a condition that tells them apart may be missing. Identical values can stand only once.

What was measured:
[1] = system: panel of cancer cell lines; assay: MTT cytotoxicity, broad panel of cancer cell lines and normal cells (Fig 1B); conditions: 72 h
Neat solution stability = type: physicochemical; conditions: 10 μM, 37°C
Method: An incubation mixture with, and without NADPH-generating system, as well as a neat solution prepared without microsomes and NADPH-generating system was used. […] All reactions were initiated with the addition of Up284. Incubations were performed in glass tubes maintained at 37°C in a shaker bath. At 0, 30, and 60 minutes, 10 μL samples were withdrawn from the reaction mixture, and 0.5 mL of acetonitrile containing internal standard was added to each. Samples were vortex-mixed and subjected to centrifugation for 5 min at 1430 x g. A 10 μL aliquot of the supernatant was injected onto the LC-MS/MS instrument for qualitative analysis using a temperature-controlled autosampling device operating at 5°C.

[2] = Single administration dose escalation study (MTD, body weight, clinical observations), female CD1 mice; type: in vivo; conditions: for Body weight change, Mean / Body weight change: day 7 vs initial weight; for Body weight change, Mean: group mean
Method: Mice were dosed on day 1 and clinical condition recorded at 0.5 h, 2 h, 4 h, 6 h, and days 1–7 (S6 Table).
Gc - general condition observation
X - treatment with compound or vehicle

## N#Cc1ccc(/C=C2/C(=O)/C(=C/c3ccc(C#N)cc3)C23CCNCC3)cc1 [Up284]
[1]
  cytotoxicity against normal cells: relatively spared normal cells
  sensitivity of HCT116 cells regardless of Tp53 status: similarly sensitive
  sensitivity of RPMI8226 and ANBL6 and bortezomib-resistant (-V10R) lines: similarly very sensitive
Neat solution stability; 0 min
  % Drug Remaining, Neat Solution: 100%
Neat solution stability; 30 min
  % Drug Remaining, Neat Solution: 86%
Neat solution stability; 60 min
  % Drug Remaining, Neat Solution: 78%
[2]; IP 40 mg/kg single dose, day 0, group mean
  Body weight, Mean: 24.20 g
[2]; IP 40 mg/kg single dose, day 0, individual mice, 40 mg/kg
  Body weight: 25.6 g and 24.3 g and 22.7 g
[2]; IP 40 mg/kg single dose, day 1, group mean
  Body weight, Mean: 22.83 g
[2]; IP 40 mg/kg single dose, day 1, individual mice, 40 mg/kg
  Body weight: 23.9 g and 22.7 g and 21.9 g
[2]; IP 40 mg/kg single dose, day 2, group mean
  Body weight, Mean: 22.97 g
[2]; IP 40 mg/kg single dose, day 2, individual mice, 40 mg/kg
  Body weight: 23.3 g and 22.3 g
[2]; IP 40 mg/kg single dose, day 3, group mean
  Body weight, Mean: 23.80 g
[2]; IP 40 mg/kg single dose, day 3, individual mice, 40 mg/kg
  Body weight: 24.2 g and 24.5 g and 22.7 g
[2]; IP 40 mg/kg single dose, day 4, group mean
  Body weight, Mean: 23.87 g
[2]; IP 40 mg/kg single dose, day 4, individual mice, 40 mg/kg
  Body weight: 24.5 g and 24.6 g and 22.5 g
[2]; IP 40 mg/kg single dose, day 5, group mean
  Body weight, Mean: 24.43 g
[2]; IP 40 mg/kg single dose, day 5, individual mice, 40 mg/kg
  Body weight: 25.0 g and 25.1 g and 23.2 g
[2]; IP 40 mg/kg single dose, day 6, group mean
  Body weight, Mean: 24.13 g
[2]; IP 40 mg/kg single dose, day 6, individual mice, 40 mg/kg
  Body weight: 25.3 g and 24.6 g and 22.5 g
[2]; IP 40 mg/kg single dose, day 7, group mean
  Body weight, Mean: 24.83 g
[2]; IP 40 mg/kg single dose, day 7, individual mice, 40 mg/kg
  Body weight: 26.2 g and 24.5 g and 23.8 g
[2]; IP 40 mg/kg single dose
  Body weight change, Mean: 2.67%
[2]; IP 40 mg/kg single dose, individual mice, 40 mg/kg
  Body weight change: 2.34% and 0.82% and 4.85%
[2]; IP 40 mg/kg, day 0, 0.5 h, individual mice
  Clinical observation: DPEh
[2]; IP 40 mg/kg, day 0, 2 h, individual mice
  Clinical observation: HDPEh
[2]; IP 40 mg/kg, day 0, 4 h, individual mice
  Clinical observation: HDPEh
[2]; IP 40 mg/kg, day 0, 6 h, individual mice
  Clinical observation: DPEh
[2]; IP 40 mg/kg, day 0, time 0, individual mice
  Clinical observation: 0
[2]; IP 40 mg/kg, day 1, individual mice, 40 mg/kg
  Clinical observation: 0
[2]; IP 40 mg/kg, day 2, individual mice
  Clinical observation: 0
[2]; IP 40 mg/kg, day 3, individual mice
  Clinical observation: 0
[2]; IP 40 mg/kg, day 4, individual mice
  Clinical observation: 0
[2]; IP 40 mg/kg, day 5, individual mice
  Clinical observation: 0
[2]; IP 40 mg/kg, day 6, individual mice
  Clinical observation: 0
[2]; IP 40 mg/kg, day 7, individual mice
  Clinical observation: 0
[2]; IP 60 mg/kg single dose, day 0, group mean
  Body weight, Mean: 24.00 g
[2]; IP 60 mg/kg single dose, day 0, individual mice, 60 mg/kg
  Body weight: 24.4 g and 25.1 g and 22.5 g
[2]; IP 60 mg/kg single dose, day 1, individual mice
  Body weight: died
[2]; IP 60 mg/kg single dose
  Body weight change, Mean: -100.00%
[2]; IP 60 mg/kg, day 0, 0.5 h, individual mice
  Clinical observation: DPEh
[2]; IP 60 mg/kg, day 0, 2 h, individual mice
  Clinical observation: HDPEh
[2]; IP 60 mg/kg, day 0, 4 h, individual mice
  Clinical observation: HDPEh
[2]; IP 60 mg/kg, day 0, 6 h, individual mice
  Clinical observation: DPEh
[2]; IP 60 mg/kg, day 0, time 0, individual mice
  Clinical observation: 0
[2]; IP 60 mg/kg, day 1, individual mice
  Clinical observation: died
[2]; IV 40 mg/kg single dose, day 0, group mean
  Body weight, Mean: 24.50 g
[2]; IV 40 mg/kg single dose, day 0, individual mice, 40 mg/kg
  Body weight: 26.2 g and 23.2 g and 24.1 g
[2]; IV 40 mg/kg single dose, day 1, group mean
  Body weight, Mean: 23.90 g
[2]; IV 40 mg/kg single dose, day 1, individual mice, 40 mg/kg
  Body weight: 25.5 g and 22.6 g and 23.6 g
[2]; IV 40 mg/kg single dose, day 2, group mean
  Body weight, Mean: 24.07 g
[2]; IV 40 mg/kg single dose, day 2, individual mice, 40 mg/kg
  Body weight: 25.7 g and 22.4 g and 24.1 g
[2]; IV 40 mg/kg single dose, day 3, group mean
  Body weight, Mean: 25.03 g
[2]; IV 40 mg/kg single dose, day 3, individual mice, 40 mg/kg
  Body weight: 26.5 g and 23.6 g and 25.0 g
[2]; IV 40 mg/kg single dose, day 4, group mean
  Body weight, Mean: 25.23 g
[2]; IV 40 mg/kg single dose, day 4, individual mice, 40 mg/kg
  Body weight: 27.7 g and 22.9 g and 25.1 g
[2]; IV 40 mg/kg single dose, day 5, group mean
  Body weight, Mean: 25.17 g
[2]; IV 40 mg/kg single dose, day 5, individual mice, 40 mg/kg
  Body weight: 28.0 g and 23.0 g and 24.5 g
[2]; IV 40 mg/kg single dose, day 6, group mean
  Body weight, Mean: 24.97 g
[2]; IV 40 mg/kg single dose, day 6, individual mice, 40 mg/kg
  Body weight: 27.2 g and 22.6 g and 25.1 g
[2]; IV 40 mg/kg single dose, day 7, group mean
  Body weight, Mean: 25.07 g
[2]; IV 40 mg/kg single dose, day 7, individual mice, 40 mg/kg
  Body weight: 27.2 g and 23.2 g and 24.8 g
[2]; IV 40 mg/kg single dose
  Body weight change, Mean: 2.24%
[2]; IV 40 mg/kg single dose, individual mice, 40 mg/kg
  Body weight change: 3.82% and 0.00% and 2.90%
[2]; IV 40 mg/kg, day 0, 2 h, individual mice
  Clinical observation: 0
[2]; IV 40 mg/kg, day 0, 4 h, individual mice
  Clinical observation: 0
[2]; IV 40 mg/kg, day 0, 6 h, individual mice
  Clinical observation: 0
[2]; IV 40 mg/kg, day 0, time 0, individual mice
  Clinical observation: 0
[2]; IV 40 mg/kg, day 1, individual mice
  Clinical observation: 0
[2]; IV 40 mg/kg, day 2, individual mice
  Clinical observation: 0
[2]; IV 40 mg/kg, day 3, individual mice
  Clinical observation: 0
[2]; IV 40 mg/kg, day 4, individual mice
  Clinical observation: 0
[2]; IV 40 mg/kg, day 5, individual mice
  Clinical observation: 0
[2]; IV 40 mg/kg, day 6, individual mice
  Clinical observation: 0
[2]; IV 40 mg/kg, day 7, individual mice
  Clinical observation: 0
[2]; IV 60 mg/kg single dose, day 0, group mean
  Body weight, Mean: 24.43 g
[2]; IV 60 mg/kg single dose, day 0, individual mice, 60 mg/kg
  Body weight: 26.0 g and 22.7 g and 24.6 g
[2]; IV 60 mg/kg single dose, day 1, group mean
  Body weight, Mean: 24.47 g
[2]; IV 60 mg/kg single dose, day 1, individual mice, 60 mg/kg
  Body weight: 26.7 g and 22.6 g and 24.1 g
[2]; IV 60 mg/kg single dose, day 2, group mean
  Body weight, Mean: 24.77 g
